We go through 5 compounds from patent US11033600B2, “Protease transition state inhibitor prodrugs” (priority 2016, dated 2021).

The conditions of data set [1]: IV, SC and PO routes, rats.
The target in data set [2] is norovirus 3CL protease (NV 3CLpro) (Norovirus, UniProt Q83883). The data set is described as follows: FRET protease assay (3CL protease), enzyme inhibition. The data set is classed as biochemical. The procedure:
FRET protease assays. The FRET protease assay (3CL protease) was performed by preparing stock solutions of the substrate (Edans-DFHLQ/GP-Dabcyl, SEQ ID NO:1) and inhibitor in DMSO and diluting into assay buffer which was comprised of 20 mM HEPES buffer, pH 8, containing NaCl (200 mM), 0.4 mM EDTA, glycerol (60%), and 6 mM dithiothreitol (DTT). The protease was mixed with serial dilutions of each compound up to 100 μM or with DMSO in 25 μL of assay buffer and incubated at 37° C. for 30 min, followed by the addition of 25 μL of assay buffer containing substrate. Fluorescence readings were obtained using an excitation wavelength of 360 nm and an emission wavelength of 460 nm on a fluorescence microplate reader (FLx800; Biotec, Winoosk, Vt.) 1 h following the addition of substrate. Relative fluorescence units (RFU) were determined by subtracting background values (substrate-containing well without protease) from the raw fluorescence values. The dose-dependent FRET inhibition curves were fitted with a variable slope by using GraphPad Prism software (GraphPad, La Jolla, Calif.) in order to determine the IC50 values of the inhibitors.

Data set [3] concerns NV in replicon harboring cells (HG23 cells). Put plainly: Cell-based assay: virus replication in NV replicon harboring cells (HG23 cells), qRT-PCR. Set-up: species or system norovirus (NV). As to the method:
The effects of each inhibitor on virus replication were examined against NV in the NV replicon harboring cells (HG23 cells). Briefly, confluent and semi-confluent HG23 cells were incubated with medium containing DMSO (<0.1%) or each compound (up to 200 uM) for 48 h. After the incubation, total RNA was extracted and viral genome was quantitated with real-time quantitative RT-PCR (qRT-PCR). The EC50 values were determined by GraphPadPrism software.

The mark [4] stands for this setting: Table 2, carbamate prodrugs, read-out: IC50.
[5] abbreviates: Table 2, carbamate prodrugs, HG23 cells, 48 h, read-out: EC50.
[6] abbreviates: Norovirus, HG23, given in M, read-out: EC50.

Where two headings read alike, the source gives them in different places.

Chain of norovirus 3CL protease (NV 3CLpro) (Q83883 1101-1281): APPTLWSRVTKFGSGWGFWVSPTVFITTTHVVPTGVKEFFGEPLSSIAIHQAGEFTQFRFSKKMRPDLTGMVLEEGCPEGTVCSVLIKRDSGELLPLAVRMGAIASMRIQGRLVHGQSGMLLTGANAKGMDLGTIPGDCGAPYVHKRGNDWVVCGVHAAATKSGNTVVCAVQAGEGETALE

On to `CCCCCC(=O)OC([C@H](C[C@@H]1CCNC1=O)NC(=O)[C@H](CC1CCCCC1)NC(=O)OCc1cccc(Cl)c1)S(=O)(=O)O` (stereo partly drawn) [Compound 11, (5S,8S)-1-(3-Chlorophenyl)-5-(cyclohexylmethyl)-3,6,11-trioxo-8-(((S)-2-oxopyrrolidin-3-yl)methyl)-2,10-dioxa-4,7-diazahexadecane-9-sulfonate], for which the “Conversion of prodrug to the aldehyde form (compound 25) in rat plasma” value in data set [1] is listed as “most of compound 11 was converted to the aldehyde form”. In data set [2] (Table 1, ester prodrugs, average of at least two determinations, read-out: IC50 (50% inhibitory concentration in the enzyme assay)), the IC50 is 0.1 µM. Further, the EC50 in data set [3] (Table 1, ester prodrugs, HG23 cells, 48 h, read-out: EC50 (50% effective concentration in cell culture)) came to 15 nM.

In the case of `COC(=O)C(NC(=O)OC([C@H](C[C@@H]1CCNC1=O)NC(=O)[C@H](CC1CCCCC1)NC(=O)OCc1cccc(Cl)c1)S(=O)(=O)O)C(C)C` (stereo partly drawn) [Compound 22, (5 S,8S)-1-(3-Chlorophenyl)-5-(cyclohexylmethyl)-13-isopropyl-3,6,11,14-tetraoxo-8-(((S)-2-oxopyrrolidin-3-yl)methyl)-2,10,15-trioxa-4,7,12-triazahexadecane-9-sulfonate], the IC50 in data set [2] (setting [4]) amounted to 0.5 µM. In data set [3] (setting [5]), the EC50 was 40 nM.

Regarding `COC(=O)C(C)NC(=O)OC([C@H](C[C@@H]1CCNC1=O)NC(=O)[C@H](CC1CCCCC1)NC(=O)OCc1ccccc1)S(=O)(=O)O` (stereo partly drawn) [Compound 23, (5 S,8S)-5-(Cyclohexylmethyl)-13-methyl-3,6,11,14-tetraoxo-8-(((S)-2-oxopyrrolidin-3-yl)methyl)-1-phenyl-2,10,15-trioxa-4,7,12-triazahexadecane-9-sulfonate], the IC50 in data set [2] (setting [4]) worked out at 10.2 µM. Besides, the EC50 in data set [3] (setting [5]) turned out to be 200 nM.

For `CC(C)C[C@H](NC(=O)OCc1ccccc1)C(=O)N[C@@H](C[C@@H]1CCNC1=O)C(O)S(=O)(=O)O` (some centres unmarked) [Compound 24, reference compound], the IC50 in data set [2] (in μM, read-out: IC50) was determined as 0.8 µM. In addition, the EC50 in data set [3] (setting [6]) is 300 nM.

Regarding `O=C(N[C@@H](CC1CCCCC1)C(=O)N[C@@H](C[C@@H]1CCNC1=O)C(O)S(=O)(=O)O)OCc1cccc(Cl)c1` (some centres unmarked) [Compound 26, reference compound], in data set [2] (in μM, read-out: IC50), the IC50 was determined as 0.1 µM. The EC50 in data set [3] (setting [6]) stood at 20 nM.
